Results taken from patent publication US20250197416A1, “PARTHENOLIDE DERIVATIVES AND USE THEREOF” (University of Rochester, priority 2022, published 2025).

What was measured:
[1] = compared with parthenolide; cited from earlier work
[2] = test system: colon cancer cells (HCT-116); test: MTT cell viability assay, HCT-116; assay type: cell-based, human
Method: (§1) The anticancer activity of the compounds was determined using a MTT (3-[4,5-dimethylthiazol-2-yl]-2,5 diphenyl tetrazolium bromide) assay, which measures cell viability upon incubation of the cells with the compounds. […] Other notable structure-activity insights include the large impact on the linkage utilized for macrocyclization of 14-hydroxy-PTL-derived AB08 and AB24 on the cancer cell specificity of these molecules.
(§2) Experimental Procedures. All cancer cell lines were maintained in a 37° C. humidified incubator with 5% C02. A549, MDA-MB-231, PC-3, SK-N-MC, HeLa, SJSA-1, HCT-116, and SK-MEL-2 cells were cultured in DMEM medium (Gibco) supplemented with 10% FBS (Gibco) and 100 I.U./ml penicillin-streptomycin (Sigma). Adherent cells were dissociated using Accutase (Millipore) or trypsin-EDTA 0.25% (Gibco). Adherent cells were seeded in a 96-well plate at a density of 1000-20,000 cells per well in 180 μl complete DMEM media. Suspension cells were seeded in conical 96-well plates (Nunc) at a density of 30,000 cells per well in 90 ul of complete α-MEM media devoid of phenol red indicator. The plates were incubated in a humidified incubator for 16 hours prior to treatment. […] The resulting OD was measured at 550 nm using a multi-well plate reader (Tecan). […] The resulting absorbance was measured at 570 nm and 600 nm using a multi-well plate reader (Tecan).

[3] = test system: human cancer cells: PC3, SK-N-MC, MDA-MB-231, A549, HeLa, SK-MEL-2, SJSA-1, HCT-116; test: MTT cell viability assay, panel of cancer cell lines; assay type: cell-based; conditions: 24 hours; for anticancer activity profile (cytotoxicity spectrum / cancer-type specificity): reduction of cell viability at 10 μM and 20 μM; for anticancer activity (reduction of cancer cell viability): 10 μM and 20 μM
Method: as §1
Experimental Procedures. All cancer cell lines were maintained in a 37° C. humidified incubator with 5% C02. A549, MDA-MB-231, PC-3, SK-N-MC, HeLa, SJSA-1, HCT-116, and SK-MEL-2 cells were cultured in DMEM medium (Gibco) supplemented with 10% FBS (Gibco) and 100 I.U./ml penicillin-streptomycin (Sigma). Adherent cells were dissociated using Accutase (Millipore) or trypsin-EDTA 0.25% (Gibco). Adherent cells were seeded in a 96-well plate at a density of 1000-20,000 cells per well in 180 μl complete DMEM media. Suspension cells were seeded in conical 96-well plates (Nunc) at a density of 30,000 cells per well in 90 ul of complete α-MEM media devoid of phenol red indicator. The plates were incubated in a humidified incubator for 16 hours prior to treatment. PTL analogs were prepared as concentrated stocks (2 mM) in DMSO and stored at −30° C. Prior to testing, the analogs were diluted into complete cell culture medium and the media was supplemented with sterile DMSO (10% of final volume). For the initial cytotoxicity screening, the compounds were added to the cells in 20 μl aliquots to give a final concentration of 20 μM and 10 μM parthenologs and 1% DMSO (n=3). Following a 24-hour incubation, the culture media from the adherent cell plates (e.g., HeLa, A549) was aspirated and replaced with 100 pd of 1 mg/mL Thiazolyl Blue Tetrazolium Bromide (MTT, Fisher) in complete culture medium devoid of phenol red. After incubation at 37° C. for 1 hour, the plates were centrifuged (4000 rpm, 5 minutes), the media was removed and 100 ul of DMSO was added to solubilize the formazan product. The resulting OD was measured at 550 nm using a multi-well plate reader (Tecan). Suspension cells were treated for 24 hours in the presence or in the absence of the compounds at 10 μM and 20 μM, followed by measurement of cell viability using alamarBlue stain. After incubation, […] of AlamarBlue (Invitrogen) was added to each well and incubated until color change was observed, typically approximately 20-24 hours, in the control wells (1% DMSO in media, no compound). The resulting absorbance was measured at 570 nm and 600 nm using a multi-well plate reader (Tecan).

[4] = test system: lung adenocarcinoma (A549); test: MTT cell viability assay, A549; assay type: cell-based, human; conditions: relative to PTL
Method: as §1, §2

[5] = test system: breast cancer cells (MDA-MB-231); test: MTT cell viability assay, MDA-MB-231; assay type: cell-based, human; conditions: relative to PTL
Method: as §1, §2

[6] = test system: cervical (HeLa) cancer cells; test: MTT cell viability assay, HeLa; assay type: cell-based, human; conditions: 10 μM and 20 μM, 24 hours
Method: as §1, §2

leukemia cell line HL-60 = test: alamarBlue cell viability assay, HL-60; assay type: cell-based; conditions: 10 μM and 20 μM, 24 hours
Method: The antileukemic activity of the PTL analogs was evaluated using the leukemia cell line HL-60 and the leukemia stem cell line M9-ENL1. To measure the compound activity against hematologic cells, cells were treated for 24 hours in the presence or in the absence of the PTL analog at 10 μM and 20 μM, followed by measurement of cell viability using alamarBlue stain (FIG. 9).
as §2, with “treatment. PTL analogs were prepared as concentrated stocks (2 mM) in DMSO and stored at −30° C.” for “treatment.”

CC1=CCCC2(C)OC2C2OC(=O)C(C)C2CC1 (stereo not shown)
anticancer and anti-inflammatory activity after reduction of the α-methylene-γ-lactone group [1]: complete loss of activity

C=C1CC[C@H]2C(=C)C(=O)O[C@@H]2[C@H]2O[C@]2(C)CCC=CCCC(=O)OC1 [AB07]
increased potency compared to PTL, based on half-maximal lethal dose (LD50) ([2]; HCT-116, relative to PTL): > 3 fold

C=C(C)[C@@H]1C[C@H]2C(=C)C(=O)O[C@@H]2[C@H]2O[C@]2(C)CCC=CCCC(=O)O1 [AB10]
anticancer activity profile (cytotoxicity spectrum / cancer-type specificity) [3]: intermediate

C=C1C(=O)O[C@@H]2[C@H]3O[C@]3(C)CC[C@@H]3C(=CCn4c(=O)n(-c5ccccc5)c(=O)n43)CC[C@@H]12 [AB16]
anticancer activity (reduction of cancer cell viability) [3]: potent anticancer activity against at least six cell lines
anticancer activity profile (cytotoxicity spectrum / cancer-type specificity) [3]: intermediate

C=C1C(=O)O[C@@H]2[C@H]3O[C@]3(C)CCC3C(=CCC(C#N)(C#N)C3(C#N)C#N)CC[C@@H]12 (stereo partly shown) [AB17]
anticancer activity (reduction of cancer cell viability) [3]: lower activity against the same cell lines

C=C1C(=O)O[C@@H]2[C@H]3O[C@]3(C)CC[C@@H]3C(=CC[C@@H]4C(=O)OC(=O)[C@@H]43)CC[C@@H]12 [AB18]
anticancer activity (reduction of cancer cell viability) [3]: lower activity against the same cell lines

C=C1C(=O)O[C@@H]2[C@H]3O[C@]3(C)CCC3C(=CCC4=C3C(O)C=CC4O)CC[C@@H]12 (stereo partly shown) [AB19]
anticancer activity (reduction of cancer cell viability) [3]: potent anticancer activity against at least six cell lines
anticancer activity profile (cytotoxicity spectrum / cancer-type specificity) [3]: intermediate

C=C/C1=C\CC[C@@]2(C)O[C@@H]2[C@H]2OC(=O)C(=C)[C@@H]2CC1 [AB20]
anticancer activity profile (cytotoxicity spectrum / cancer-type specificity) [3]: high cancer-type specificity

C=C1CC[C@H]2C(=C)C(=O)O[C@@H]2[C@@H]2O[C@]2(C)CCC/C=C\Cc2ccccc2C(=O)OC1 [AB24]
anticancer activity profile (cytotoxicity spectrum / cancer-type specificity) [3]: broad-spectrum cytotoxicity

C=C(C)[C@@H]1C[C@H]2C(=C)C(=O)O[C@@H]2[C@@H]2O[C@]2(C)CCCC=CCc2ccccc2C(=O)O1 [AB25]
enhanced potency compared to PTL, based on half-maximal lethal dose (LD50) [4]: 210 fold
anticancer activity profile (cytotoxicity spectrum / cancer-type specificity) [3]: broad-spectrum cytotoxicity
enhanced potency compared to PTL, based on half-maximal lethal dose (LD50) [5]: 210 fold

C=CCC[C@@]1(C)O[C@@H]1[C@H]1OC(=O)C(=C)[C@@H]1CCC(=C)C=O [AB26]
anticancer activity profile (cytotoxicity spectrum / cancer-type specificity) [3]: high cancer-type specificity

C=C1C(=O)O[C@@H]2[C@H]3O[C@]3(C)CC/C=C3\COC(=O)O[C@H]3C[C@@H]12 [JMB02]
anticancer activity (reduction of cancer cell viability) [3]: less potent anticancer activity

C=C1C(=O)O[C@@H]2[C@H]3O[C@]3(C)CC/C=C3\COS(=O)(=O)O[C@H]3C[C@@H]12 [JMB03]
selective activity against cervical (HeLa) cancer cells [6]: selective activity
anticancer activity profile (cytotoxicity spectrum / cancer-type specificity) [3]: high cancer-type specificity
selective activity against colon (HCT-116) cancer cells ([2]; 10 μM and 20 μM, 24 hours): selective activity

C=C1C(=O)O[C@@H]2[C@H]3O[C@]3(C)CCC(Sc3ccccc3)C(C=O)C(=O)C[C@@H]12 (stereo partly shown) [JMB06]
anticancer activity against HL-60 (leukemia cell line HL-60): relatively selective anticancer activity

C=C1C(=O)O[C@@H]2[C@H]3O[C@]3(C)CCC(C3C=CC(=O)O3)C(C=O)C(=O)C[C@@H]12 (stereo partly shown) [JMB07]
anticancer activity against HL-60 (leukemia cell line HL-60): relatively selective anticancer activity

C=C1C(=O)O[C@@H]2[C@H]3O[C@]3(C)CC/C=C(\C)C(=O)C[C@@H]12 [JMB08]
anticancer activity profile (cytotoxicity spectrum / cancer-type specificity) [3]: intermediate
